Measured values published in PMC6691772, “Novel phthalimide based analogues: design, synthesis, biological evaluation, and molecular docking studies” (Journal of Enzyme Inhibition and Medicinal Chemistry, 2019).
Converted amounts (≈) assume the structure as drawn.

Experiments:
[1] = tested on: S. pneumonia RCMB 010010; test: Agar well diffusion, inhibition zone; assay type: cell-based, Streptococcus pneumoniae; set-up: key to Mean diameter of inhibition zone (Mean ± SEM): –: -: No activity under the screening conditions; details: mean of three values; for zone of inhibition at 1000 µg/mL: Streptococcus pneumoniae, RCMB010010, 1 mg/mL, read-out: Mean diameter of inhibition zone (Mean ± SEM)
[2] = tested on: B. subtilis RCMB 010067; test: Agar well diffusion, inhibition zone; assay type: cell-based, Bacillus subtilis; set-up: key to Mean diameter of inhibition zone (Mean ± SEM): –: -: No activity under the screening conditions; details: mean of three values; for zone of inhibition at 1000 µg/mL: Bacillus subtilis, RCMB010067, 1 mg/mL, read-out: Mean diameter of inhibition zone (Mean ± SEM)
[3] = tested on: P. aeruginosa RCMB 010043; test: Agar well diffusion, inhibition zone; assay type: cell-based, Pseudomonas aeruginosa; details: Pseudomonas aeruginosa, RCMB010043, 1 mg/mL, mean of three values, read-out: Mean diameter of inhibition zone (Mean ± SEM)
[4] = tested on: E. coli RCMB 010052; test: Agar well diffusion, inhibition zone; assay type: cell-based, Escherichia coli; details: Escherichia coli, RCMB010052, 1 mg/mL, mean of three values, read-out: Mean diameter of inhibition zone (Mean ± SEM)
[5] = tested on: A. fumigatus RCMB 002568; test: Agar well diffusion, inhibition zone; assay type: cell-based, Aspergillus fumigatus; set-up: key to Mean diameter of inhibition zone (Mean ± SEM): –: -: No activity under the screening conditions; details: mean of three values; for zone of inhibition at 1000 µg/mL: Aspergillus fumigatus, RCMB002568, 1 mg/mL, read-out: Mean diameter of inhibition zone (Mean ± SEM); for Mean diameter of inhibition zone (Mean ± SEM): 1 mg/mL
[6] = tested on: C. albicans RCMB 005036; test: Agar well diffusion, inhibition zone; assay type: cell-based, Candida albicans; set-up: key: –: -: No activity under the screening conditions; details: 1 mg/mL, mean of three values
[7] = tested on: human liver cancer cell line (HepG-2); test: MTT anticancer assay; assay type: cell-based; details: HepG2, HePG-2 cancer liver cell line, mean of three values, read-out: IC50 (Mean ± SEM)
[8] = tested on: (THLE-2) normal liver cell line; test: Cytotoxic screening on normal liver cells; assay type: cell-based; details: Homo sapiens, mean of three values, read-out: IC50 (Mean ± SEM)
[9] = tested on: S. pneumonia RCMB 010010; test: Minimum inhibitory concentration, modified agar well diffusion; assay type: cell-based; details: Streptococcus pneumoniae, RCMB010010, mean of three values, read-out: MIC (Mean ± SEM)
[10] = tested on: B. subtilis RCMB 010067; test: as above; assay type: cell-based; details: Bacillus subtilis, RCMB010067, mean of three values, read-out: MIC (Mean ± SEM)
[11] = tested on: P. aeruginosa RCMB 010043; test: as above; assay type: cell-based; details: Pseudomonas aeruginosa, RCMB010043, mean of three values, read-out: MIC (Mean ± SEM)
[12] = tested on: E. coli RCMB 010052; test: as above; assay type: cell-based; details: Escherichia coli, RCMB010052, mean of three values, read-out: MIC (Mean ± SEM)
[13] = tested on: A. fumigatus RCMB 002568; test: as above; assay type: cell-based; details: Aspergillus fumigatus, RCMB002568, mean of three values, read-out: MIC (Mean ± SEM)

Structure (SMILES) | zone of inhibition at 1000 µg/mL [1] [mm] | zone of inhibition at 1000 µg/mL [2] [mm] | zone of inhibition at 1000 µg/mL [3] [mm] | zone of inhibition at 1000 µg/mL [4] [mm] | zone of inhibition at 1000 µg/mL [5] [mm] | Mean diameter of inhibition zone (Mean ± SEM) [6] | IC50 [7] [µg/mL] | IC50 [8] [µg/mL] | melting point [°C] | MIC [9] [µg/mL] | MIC [10] [µg/mL] | MIC [11] [µg/mL] | MIC [12] [µg/mL] | MIC [13] [µg/mL] | Mean diameter of inhibition zone (Mean ± SEM) [5] | Mean diameter of inhibition zone (Mean ± SEM) ([1]; 1 mg/mL) | Mean diameter of inhibition zone (Mean ± SEM) ([2]; 1 mg/mL)
CN(C)C=NC1=NNC(=O)C1=NNN1C(=O)c2ccccc2C1=O [Compound 10, N'-{4-[(1,3-dioxo-1,3-dihydro-2H-isoindol-2-yl)hydrazono]-5-oxo-4,5-dihydro-1H-pyrazol-3-yl}-N,N-dimethylimidoformamide] | 14.2 ± 0.4 | 11.3 ± 0.7 | 12.3 ± 0.4 | 22.6 ± 1.5 | 12.1 ± 1.5 | – | 16.7 ± 0.26 (≈ 51.1 µM) | 688.29 ± 0.11 (≈ 2100 µM) | 136 to 138 |  |  |  |  |  |  |  | 
N#Cc1cnc2c(N=NN3C(=O)c4ccccc4C3=O)c(O)nn2c1N [Compound 12, 7-Amino-3-[(1,3-dioxo-1,3-dihydro-2H-isoindol-2-yl)diazenyl]-2-hydroxy-pyrazolo[1,5-a]pyrimidine-6-carbonitrile] | 18.6 ± 1.2 | 24.3 ± 0.6 | 15.8 ± 1.5 | 21.8 ± 1.3 | 20.7 ± 1.2 | – | 9.11 ± 1.02 (≈ 26.2 µM) | 793.56 ± 0.31 (≈ 2280 µM) | 302 | 7.81 ± 1.01 (≈ 22.4 µM) | 0.98 ± 1.18 (≈ 2.81 µM) | 62.5 ± 1.06 (≈ 179 µM) | 3.9 ± 0.03 (≈ 11.2 µM) | 3.9 ± 1 (≈ 11.2 µM) |  |  | 
NC1=Nc2c(N=NN3C(=O)c4ccccc4C3=O)c(O)nn2C1 [Compound 6, 2-((2-Amino-6-hydroxy-3H-imidazo[1,2-b]pyrazol-7-yl)diazenyl)isoindoline-1,3-dione] | 20.8 ± 1.5 | 17.8 ± 1.2 | 11.9 ± 1.3 | 16.3 ± 0.5 |  | – | 14.4 ± 0.37 (≈ 46.3 µM) | 652.46 ± 0.03 (≈ 2100 µM) | 180 to 182 |  |  |  |  |  | – |  | 
O=C1c2ccccc2C(=O)N1N=Nc1c(O)nn2cc(-c3ccccc3)[nH]c12 [Compound 7, 2-((6-Hydroxy-2-phenyl-1H-imidazo[1,2-b]pyrazol-7-yl)diazenyl)isoindoline-1,3-dione] | 12.7 ± 0.6 | 21.5 ± 1.5 | 16.9 ± 1.2 | 11.9 ± 1.3 |  | – | 23.6 ± 1.32 (≈ 63.4 µM) | 662.58 ± 0.17 (≈ 1780 µM) | 196 to 198 |  |  |  |  |  | – |  | 
CNC(C)C1CCC(N)C(OC2C(N)CC(N)C(OC3OCC(C)(O)C(NC)C3O)C2O)O1 (centres unmarked) [Gentamycin, reference compound] |  |  | 19.7 ± 0.6 | 24.9 ± 1.5 |  | – |  |  |  |  |  |  |  | 1.95 ± 0.03 (≈ 4.08 µM) | – | – | –
CSc1c(C#N)c(N)nc2c(N=NN3C(=O)c4ccccc4C3=O)c(O)nn12 [Compound 9, 5-Amino-3-((1,3-dioxo-1,3-dihydro-2H-isoindol-2-yl)diazenyl)-2-hydroxy-7-(methylthio)pyrazolo[1,5-a]pyrimidine-6-carbonitrile] | 22.2 ± 0.6 | 23.2 ± 1.5 | 17.2 ± 1.3 | 24 ± 1.3 | 16.6 ± 1.3 | – | 5.6 ± 1.57 (≈ 14.2 µM) | 754.31 ± 0.2 (≈ 1910 µM) | 210 to 211 | 3.9 ± 0.2 (≈ 9.89 µM) | 1.95 ± 1.3 (≈ 4.94 µM) | 15.6 ± 0.26 (≈ 39.6 µM) | 0.49 ± 1.08 (≈ 1.24 µM) | 1.95 ± 0.34 (≈ 4.94 µM) |  |  | 
